Measurements from ChEMBL document CHEMBL1165911, “Elaborate ligand-based pharmacophore exploration and QSAR analysis guide the synthesis of novel pyridinium-based potent beta-secretase inhibitory leads” (Bioorg Med Chem, 2010).
pIC50: −log10 of the molar value. Square brackets hold non-standard residues; d marks the D form. Peptide text beside a SMILES is read from it. * marks the point of attachment. ξ: configuration not given here. Cbz = O=C(OCc1ccccc1)*; Boc = CC(C)(C)OC(=O)*; ξV = CC(C)C(N)C(=O)O; OBn = c1ccc(CO*)cc1; Bn = c1ccc(C*)cc1

The compounds below were run against Beta-secretase 1 (Homo sapiens, UniProt P56817).
Beta-secretase 1, sequence (P56817 whole entry): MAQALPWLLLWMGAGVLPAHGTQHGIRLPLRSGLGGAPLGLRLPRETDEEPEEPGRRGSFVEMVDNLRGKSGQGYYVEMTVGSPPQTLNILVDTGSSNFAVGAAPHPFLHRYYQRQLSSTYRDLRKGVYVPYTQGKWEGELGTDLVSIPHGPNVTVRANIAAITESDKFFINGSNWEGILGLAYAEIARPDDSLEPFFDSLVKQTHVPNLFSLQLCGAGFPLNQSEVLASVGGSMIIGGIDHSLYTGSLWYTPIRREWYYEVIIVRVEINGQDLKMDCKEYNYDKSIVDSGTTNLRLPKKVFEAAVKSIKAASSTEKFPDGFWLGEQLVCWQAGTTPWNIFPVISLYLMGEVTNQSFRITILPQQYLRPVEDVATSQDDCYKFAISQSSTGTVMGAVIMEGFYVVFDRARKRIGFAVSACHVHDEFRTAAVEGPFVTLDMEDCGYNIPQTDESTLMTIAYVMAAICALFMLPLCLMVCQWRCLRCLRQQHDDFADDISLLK
Description: Inhibition of BACE1 after 2 hrs by FRET assay

Row | Compound | pIC50
1 | Cc1c(CC(=O)N[C@H](CCCNC(N)=O)C(=O)O)c(=O)oc2c(C)c(O)ccc12 | 3.30
2 | COc1cc2[nH]c(=O)n(Cc3ccc(C(=O)NCc4ccc(C)cc4)cc3)c(=O)c2cc1OC | 4.00
3 | O=C(O)c1cc(-c2ccc(/C=N/Nc3nc(Nc4ccc(F)cc4)nc(N4CCOCC4)n3)o2)ccc1Cl | 5.15
4 | FC(F)(Cl)Oc1ccc(Nc2nc(NCc3ccccc3)nc(N3CCCCC3)n2)cc1 | 4.00
5 | COc1cccc2cc(C(=O)Nc3cc(Br)ccc3N3CCN(Cc4ccccc4)CC3)c(=O)oc12 | 5.30
6 | Cc1ccc(CNC(=O)c2ccc(N3CC4CC(C3)c3cccc(=O)n3C4)c(NS(=O)(=O)c3ccc4c(c3)OCCO4)c2)cc1 (stereo unspecified) | 4.00
7 | Cc1ccc(Nc2nc(N/N=C/c3ccc(Cl)c(Cl)c3)nc(N3CCOCC3)n2)c(Cl)c1 | 4.00
8 | O=C(NCc1ccc(Cl)cc1)c1ccc(N2CC3CC(C2)c2cccc(=O)n2C3)c(NS(=O)(=O)c2ccc3c(c2)OCCO3)c1 (stereo unspecified) | 4.00
9 | Cc1cc(O)c2c(C)c(CC(=O)N[C@H](CCCNC(N)=O)C(=O)O)c(=O)oc2c1 | 3.30
10 | CC(=O)Nc1cc(C(=O)NCc2cc(F)cc(Cl)c2)ccc1Sc1ccc(Cl)cc1 | 4.00
11 | Oc1c(I)cc(I)cc1/C=N/Nc1nc(Nc2cccc3ccccc23)nc(N2CCOCC2)n1 | 4.00
12 | O=C1CSC(c2ccc(Cl)cc2)N1Nc1nc(Nc2ccccc2)nc(N2CCCCC2)n1 (stereo unspecified) | 4.00
13 | Cc1cc(Br)c(Nc2nc(CN3CCOCC3)nc(N/N=C/c3cc(I)cc(C)c3O)n2)cc1Cl | 4.00
14 | NS(=O)(=O)c1ccc(NC(=O)CSc2nnc(-c3ccccc3)c(-c3ccccc3)n2)cc1 | 4.00
15 | COc1cccc(C(=O)OCC(=O)NCc2ccc(Cl)cc2Cl)c1O | 3.30
16 | CC1CCCCN1CCNC(=O)c1cc(=O)[nH]c2ccc(S(=O)(=O)N3CCCCC3)cc12 (stereo unspecified) | 4.00
17 | CCOc1cc(/C=N\NC(=O)COc2ccc(C)cc2)cc(I)c1O | 4.00
18 | CCCc1cc(=O)oc2c(C)c(OCC(=O)NCC(=O)NCC(=O)O)ccc12 | 4.00
19 | CC(C)S(=O)(=O)N(C)c1cc(C(=O)N[C@@H](Cc2ccccc2)[C@H](O)CNC2CC2)cc(C(=O)N[C@H](C)c2ccccc2)c1 | 4.39
20 | CCN1CCCC1CNC(=O)c1ccc2c(=O)n(Cc3cccc(Br)c3)c(=S)[nH]c2c1 (stereo unspecified) | 4.00
21 | O=C(O)CCCNC(=O)CCCCC(=O)C(c1ccccc1)c1ccccc1 | 3.30
22 | Clc1ccc(/C=N/Nc2nc(NCc3ccc(Cl)cc3)nc(N3CCOCC3)n2)cc1 | 4.00
23 | CCCc1cc(=O)oc2cc(OCC(=O)NCC(=O)NCC(=O)O)ccc12 | 3.30

Row | Compound | pIC50
24 | O=C(NCc1ccccc1)c1ccc(N2CC3CC(C2)c2cccc(=O)n2C3)c(NS(=O)(=O)c2ccc3c(c2)OCCO3)c1 (stereo unspecified) | 4.00
25 | Cc1cc(C)nc(NS(=O)(=O)c2ccc(Nc3nc(-c4ccc(C(C)C)cc4)cs3)cc2)n1 | 3.00
26 | O=C(Nc1cc(Br)ccc1N1CCN(Cc2ccccc2)CC1)c1cccc2ccccc12 | 5.30
27 | O=C(O)CC(NNc1nc(NCCO)nc(N2CCOCC2)n1)c1ccccc1 (stereo unspecified) | 3.30
28 | COc1nc(NCCN2CCOCC2)nc(Nc2ccc(I)cc2)n1 | 4.00
29 | CCc1ccc(N2C(=O)Nc3ccc(Br)cc3C2(O)C(=O)NCC(C)CN2CCC(C)CC2)cc1 (stereo unspecified) | 4.00
30 | CCOc1nc(NCCN2CCOCC2)nc(NNc2ccc(I)cc2C)n1 | 4.92
31 | Oc1c(I)cc(I)cc1/C=N/Nc1nc(NCc2ccccc2)nc(N2CCOCC2)n1 | 4.00
32 | CCN1CCN(CCNC(=O)c2ccc3c(=O)n(Cc4ccc(Cl)cc4)c(=S)[nH]c3c2)CC1 | 4.00
33 | CCOc1cc(C2C(C(=O)OCc3ccccc3)=C(C)NC3=C2C(=O)CC(C)(C)C3)cc(Br)c1O (stereo unspecified) | 4.00
34 | Cc1ccc(Nc2nc(N/N=C/c3cccc(Br)c3)nc(N3CCOCC3)n2)cc1 | 4.00
35 | CCOC(=O)C(Cc1ccc(O)cc1)NS(=O)(=O)c1ccc2c(c1)C(=O)c1ccccc1C2=O (stereo unspecified) | 4.00
36 | O=C(NCCc1ccccc1)c1c[nH]c2ccc(S(=O)(=O)N3CCc4ccccc4C3)cc2c1=O | 4.00
37 | CCSc1sc(CC)cc1C1C(C(=O)Nc2ccc(C)cn2)=C(C)NC2=C1C(=O)CC(C)(C)C2 (stereo unspecified) | 4.00
38 | CC(C)C(NC(=O)CNC(=O)CNC(=O)OCc1ccccc1)C(=O)O (stereo not drawn) (Cbz-Gly-Gly-[ξV]-OH) | 3.30
39 | C=CN(C=C)C(=O)c1cc(OCC(=O)NCCCCCN)cc(C(=O)N[C@H](C)c2ccccc2)c1 | 4.60
40 | CCCCc1ccc(Nc2nc3ccccc3nc2NS(=O)(=O)c2ccc(Cl)cc2)cc1 | 4.00
41 | O=C(O)c1cccc(-c2ccc(/C=N/Nc3nc(Nc4ccccc4)nc(N4CCCCC4)n3)o2)c1 | 4.00
42 | CCNC[C@@H](O)[C@H](Cc1ccccc1)NC(=O)c1cc(C(=O)N[C@H](C)c2ccc(F)cc2)cc(N(C)S(C)(=O)=O)c1 | 4.82
43 | CCSc1scc(CC)c1C1C(C(=O)Nc2ccc(Br)cn2)=C(C)NC2=C1C(=O)CC(C)(C)C2 (stereo unspecified) | 4.00
44 | O=C(CN1CCN(Cc2ccccc2)CC1)N/N=C\c1cc(I)cc(I)c1O | 4.00
45 | O=C(NCc1ccccc1Cl)c1ccc(N2CC3CC(C2)c2cccc(=O)n2C3)c(NS(=O)(=O)c2ccc3c(c2)OCCO3)c1 (stereo unspecified) | 4.00
46 | CCN1CCCC1CNC(=O)c1ccc2c(=O)n(Cc3ccc(Cl)cc3)c(=S)[nH]c2c1 (stereo unspecified) | 4.00

Row | Compound | pIC50
47 | Cc1ccc(NC(=O)c2cc(NC(=O)CCCC(=O)O)ccc2N2CCOCC2)cc1 | 3.30
48 | CC(C)(C)OC(=O)NC(CC(=O)OCc1ccccc1)C(=O)NC(COCc1ccccc1)C(=O)NCC(=O)OCc1ccccc1 (stereo unspecified) (Boc-Asp(OBn)-Ser(Bn)-Gly-OBn; configuration not given here) | 4.00
49 | O=C(NCc1ccc(F)cc1)c1ccc(N2CC3CC(C2)c2cccc(=O)n2C3)c(NS(=O)(=O)c2ccc3c(c2)OCCO3)c1 (stereo unspecified) | 4.00
50 | O=C(Nc1ccc(Cl)cc1C(=O)c1ccccc1)c1ccc(Nc2nc(-c3ccccc3)c3cc(Br)ccc3n2)cc1 | 4.00
51 | NNC(=O)CN1C(CN2CCOCC2)=Nc2ccc(Br)cc2C1c1ccccc1 (stereo unspecified) | 4.00
52 | Clc1ccc(/C=N/Nc2nc(Nc3ccccc3)nc(Nc3ccccc3)n2)cc1Cl | 4.00
53 | COc1cc(/C=N\NC(=O)c2ccccc2OCCOc2ccccc2)cc(Br)c1O | 3.30
54 | CC(NC(=O)NCCNC(=O)NC(C)C(=O)O)C(=O)O (stereo unspecified) | 3.30
55 | Cc1c(CC(=O)N[C@H](CCCNC(N)=O)C(=O)O)c(=O)oc2cc(O)ccc12 | 3.30
56 | CN(C)c1nc(N/N=C/c2cc(I)cc(I)c2O)nc(N2CCOCC2)n1 | 4.00
57 | C[C@@H](NC(=O)c1cc(C(=O)N[C@@H](Cc2ccccc2)[C@H](O)CNC2CC2)cc(N(C)S(=O)(=O)N(C)C)c1)c1ccccc1 | 4.85
58 | C=CCn1c(SCC(=O)Nc2ccc(S(N)(=O)=O)cc2)nc2sc3c(c2c1=O)CCCC3 | 4.00
59 | Cc1ccc(Nc2nc(CN3CCOCC3)nc(N/N=C/c3cc(Br)cc(Br)c3O)n2)cc1 | 4.32
60 | O=C(NCCc1ccc(Cl)cc1)c1ccc(Cn2c(=S)[nH]c3ccc(N4CCOCC4)cc3c2=O)cc1 | 4.00
61 | O=C(Nc1cc(Br)ccc1N1CCOCC1)c1cc2ccccc2oc1=O | 5.00
62 | O=C(O)c1cc(-c2ccc(/C=N/Nc3nc(Nc4ccccc4)nc(N4CCCCC4)n3)o2)ccc1Cl | 3.82
63 | COc1cc(/C=N/Nc2nc(Nc3ccc(F)cc3)nc(N3CCCCC3)n2)ccc1OCC(=O)O | 4.00
64 | CCCCCCc1nc2ccccc2c(=O)n1NC(O)c1c(O)c2cccc3c2n(c1=O)CCC3 (stereo unspecified) | 4.00
65 | CC1CCCCN1CCNC(=O)c1cc(=O)[nH]c2ccc(S(=O)(=O)N3CCOCC3)cc12 (stereo unspecified) | 4.00
66 | NS(=O)(=O)c1ccc(CCNC(=O)CCc2nc3sc4c(c3c(=O)[nH]2)CCCC4)cc1 | 4.00
67 | C[C@H](NC(=O)c1cc(OCC(=O)NCCCCCN)cc(OS(=O)(=O)Cc2ccccc2)c1)c1ccccc1 | 4.00
68 | Cc1oc(-c2ccccc2)cc1C(=O)NCC(=O)NC(C(=O)O)C(C)C (stereo unspecified) | 3.30
69 | O=C(O)c1cc(-c2ccc(/C=N/Nc3nc(Nc4ccc(F)cc4)nc(N4CCCCC4)n3)o2)ccc1O | 4.55

Row | Compound | pIC50
70 | COc1ccc(C(=O)Nc2ccccc2C(=O)NC(CCSC)C(=O)NNC(=O)Sc2nc3ccccc3s2)cc1 (stereo unspecified) | 4.30
71 | COc1ccc(OC)c(/N=c2\oc3c(C)ncc(CO)c3cc2C(=O)Nc2ccc(Cl)cc2)c1 | 4.00
72 | CCc1ccc(N2C(=O)Nc3ccc(Br)cc3C2(O)C(=O)NCc2ccccc2)cc1 (stereo unspecified) | 4.00
73 | Oc1ccc(-c2ccccc2)cc1CN1CCN(Cc2cc(-c3ccccc3)ccc2O)CC1 | 4.00
74 | Cc1cccc(N(C)S(=O)(=O)c2ccc3ncc(C(=O)NCCN4CCOCC4)c(O)c3c2)c1 | 4.00
75 | C[C@@H](NC(=O)c1cc(C(=O)N[C@@H](Cc2ccccc2)[C@H](O)CN)cc(N(C)S(C)(=O)=O)c1)c1ccc(F)cc1 | 4.64
76 | O=C(NCCc1ccc(Cl)cc1)C1CCC(CNc2nc(=S)[nH]c3ccccc23)CC1 (stereo unspecified) | 4.00
77 | COc1cc(/C=N/Nc2nc(Nc3ccccc3)nc(N3CCOCC3)n2)cc(Br)c1O | 4.00
78 | Clc1ccc(/C=N/Nc2nc(Nc3cccc(Br)c3)nc(N3CCOCC3)n2)cc1 | 4.00
79 | Clc1nc(NCCN2CCOCC2)nc(NCc2ccc(I)cc2)n1 | 4.00
80 | Cc1ccc(C)c(Nc2nc(N/N=C/c3cc(Br)c(O)c(Br)c3C)nc(N3CCOCC3)n2)c1 | 4.09
81 | COc1cccc2cc(C(=O)Nc3cc(Br)ccc3N3CCN(C(=O)OC(C)(C)C)CC3)c(=O)oc12 | 6.00
82 | CCc1cc(=O)oc2c(C)c(OC(=O)NCC(=O)NCC(=O)O)ccc12 | 3.30
83 | O=C(Nc1ccc(Cl)c(C(F)(F)F)c1)C(NS(=O)(=O)c1cccs1)c1ccccc1 (stereo unspecified) | 4.00
84 | CC(C)(C)OC(=O)N1CCN(c2ccc(Br)cc2NC(=O)c2cccc3ccccc23)CC1 | 6.00
85 | CCc1ccc(Sc2c(N)c3c(c(N)c2Sc2ccc(CC)cc2)C(=O)c2ccccc2C3=O)cc1 | 3.60
86 | O=C(CC1Sc2ccccc2NC1=O)Nc1ccccc1SC(F)(F)C(F)(F)C(F)(F)F (stereo unspecified) | 4.00
87 | COc1cccc2cc(C(=O)Nc3cc(Br)ccc3N3CCOCC3)c(=O)oc12 | 5.00
88 | C[C@@H](NC(=O)c1cc(C(=O)N[C@@H](Cc2ccccc2)[C@H](O)CNC2CC2)cc(N(C)S(C)(=O)=O)c1)c1ccc(F)cc1 | 5.00
89 | CN(C)CCNC(=O)c1c[nH]c2ccc(S(=O)(=O)N3CCc4ccccc4C3)cc2c1=O | 4.00
90 | CC1CCN(S(=O)(=O)c2ccc3[nH]c(=O)cc(C(=O)NCCCN4CCCC4)c3c2)CC1 | 4.00
91 | CSc1ccc(C(O)C(CO)NC(=O)c2cc3c(n(-c4ccc(Cl)cc4)c2=O)CC(C)(C)CC3=O)cc1 (stereo unspecified) | 4.00
